According to BindingDB's records for doi:10.1021/jm00116a002 (Abbott Laboratories, 1992):

These molecules were tested against Gastrin/cholecystokinin type B receptor (Cavia porcellus) (assay: The compound was tested for the inhibition of [125I]-Bolton-Hunter CCK-8 binding to cholecystokinin type B receptor in guinea pig cerebral cortical).

| Compound | IC50 [µM] |
| --- | --- |
| CCCCCN(CCCCC)C(=O)[C@@H](Cc1c[nH]c2ccccc12)NC(=O)c1ccc2cccc(O)c2n1 | > 10 |
| CN(Cc1ccccc1)C(=O)[C@@H](Cc1c[nH]c2ccccc12)NC(=O)c1cnc2ccccc2c1 | 10 |
| CCCCCN(CCCCC)C(=O)[C@@H](Cc1c[nH]c2ccccc12)NC(=O)c1c[nH]c2ccccc12 | 20 |
| CCCCCN(CCCCC)C(=O)[C@@H](Cc1c[nH]c2ccccc12)NC(=O)c1cccc2ccccc12 | 9.7 |
| CCCCCN(CCCCC)C(=O)[C@@H](Cc1c[nH]c2ccccc12)NC(=O)c1ccc2ccccc2c1 | 11 |

Results, then the molecule that gave them:

| IC50 [µM] | Compound |
| --- | --- |
| > 10 | CCCCCN(CCCCC)C(=O)[C@H](Cc1c[nH]c2ccccc12)NC(=O)c1ccc(Cl)c(Cl)c1 |
| > 10 | CCCCCN(CCCCC)C(=O)[C@@H](Cc1c[nH]c2ccccc12)NC(=O)c1ccc(Cl)c(Cl)c1 |
| 4.1 | CCCCCN(CCCCC)C(=O)[C@@H](CC1C(=O)Nc2ccccc21)NC(=O)c1cnc2ccccc2c1 (some centres not stated) |
| > 10 | C[C@H](NC(=O)[C@@H](Cc1c[nH]c2ccccc12)NC(=O)c1cnc2ccccc2c1)c1ccccc1 |
| 9.2 | CCOC(=O)CN(Cc1ccccc1)C(=O)[C@@H](Cc1c[nH]c2ccccc12)NC(=O)c1cnc2ccccc2c1 |

What follows are molecules tested against Gastrin/cholecystokinin type B receptor (Cavia porcellus) (assay: The compound was tested for the inhibition of [125I]-Bolton-Hunter CCK-8 binding to cholecystokinin type B receptor in guinea pig cerebral cortical; Not determined).

| IC50 [µM] | Compound |
| --- | --- |
| > 10 | CCCCCN(CCCCC)C(=O)[C@@H](Cc1c(Sc2ccccc2[N+](=O)[O-])[nH]c2ccccc12)NC(=O)c1cnc2ccccc2c1 |
| > 10 | CCCCCN(CCCCC)C(=O)[C@@H](Cc1c[nH]c2ccccc12)NC(=O)/C=C/c1cccnc1 |
